The values below come from ChEMBL document CHEMBL1201862, “PubChem BioAssay data set” (2004).

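96-well plates; 48 h exposure; 5 concentrations. Endpoints by linear interpolation between flanking doses. Not reached: highest tested concentration assigned. GI50 = concentration required for 50% inhibition of growth.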 Active and inactive are the calls of the source. Cut-off read from the data, not from the text of the source: active = GI50 up to about 1.1 µM and inactive = higher. Some results are limits rather than exact numbers.

Some test systems named below: SW-620; SNB-75; KM12; OVCAR-5; MCF7; PC-3; UACC-62; IGROV-1; SF-295; SK-MEL-28; OVCAR-8; BT-549; CCRF-CEM; SF-539; MDA-MB-231; OVCAR-4; A498; HOP-92; Hs-578T.
Common to all, as to assay: inhibition of tumour cell growth, NCI panel, 48 h

In the case of `CN1CN(c2ccccc2)C2(CCN(Cc3csc4ccccc34)CC2)C1=O`, the GI50 with SW-620 was 13.3 µM (inactive); in the test with SNB-75, 23.7 µM (inactive); in the test on KM12, 11.5 µM (inactive); in the test with OVCAR-5, 1.63 µM (inactive); in the test on MCF7, 11.6 µM (inactive); in the test on PC-3, 9.27 µM (inactive). Also, the GI50 was 22.8 µM (inactive) with UACC-62; 10.8 µM (inactive) in the test on IGROV-1; 11.8 µM (inactive) with SF-295; 22.1 µM (inactive) with SK-MEL-28; 16.2 µM (inactive) with OVCAR-8; 7.35 µM (inactive) in the test with BT-549. Moreover, the results for the GI50 with CCRF-CEM, with SF-539 and in the test with MDA-MB-231 were 17.5 µM (inactive), 15.1 µM (inactive) and > 10 µM (inactive), respectively.
`O=C1c2cccc3cc([N+](=O)[O-])cc(c23)C(=O)N1CCCN1CCN(CCCN2C(=O)c3cccc4cc([N+](=O)[O-])cc(c34)C2=O)CC1`: the GI50 is 0.0284 µM (active) in the test with SW-620; 1.38 µM (inactive) with SNB-75; 0.063 µM (active) with KM12; 0.0925 µM (active) with OVCAR-4; 1.65 µM (inactive) in the test with OVCAR-5; 0.272 µM (active) in the test on A498. In addition, the GI50 with UACC-62 is 0.0579 µM (active); in the test with IGROV-1, 0.0628 µM (active); in the test on SF-295 it was 0.0386 µM (active); in the test on HOP-92 it was 0.237 µM (active); with OVCAR-8 it was < 0.01 µM (active); in the test on CCRF-CEM it was 0.0803 µM (active). For the same molecule, the GI50 with SF-539 is 0.313 µM (active).
Regarding `Cc1ccccc1Nc1nc(NNC(=O)Cc2ccccc2)nc(NNC(=O)c2ccncc2)n1`, the GI50 in the test with SNB-75, with KM12, with OVCAR-4, in the test with MCF7, with Hs-578T and in the test on UACC-62 was > 10 µM (inactive) each time. Further, the GI50 with IGROV-1, with HOP-92, with SK-MEL-28, in the test with OVCAR-8, in the test with BT-549 and in the test with CCRF-CEM was > 10 µM (inactive) in each case. For the same molecule, the GI50 with SF-539 and in the test on MDA-MB-231 was > 10 µM (inactive) in each case.
Consider `O=C(c1cccc2ccccc12)C1(Br)S(=O)(=O)OCCOS1(=O)=O`, for which the GI50 in the test with KM12 was > 100 µM (inactive); in the test on OVCAR-4, > 100 µM (inactive); in the test with OVCAR-5, > 100 µM (inactive); in the test on MCF7, > 100 µM (inactive); in the test with SF-295, > 100 µM (inactive); in the test with HOP-92, > 10 µM (inactive). In addition, the GI50 in the test with SK-MEL-28, with OVCAR-8, with BT-549 and with MDA-MB-231 was > 100 µM (inactive) in each case.
Turning to `Cc1cc(=O)oc2cc(OCC(O)COC(C)C)ccc12` (stereo not drawn), the GI50 in the test with SW-620 is 99.1 µM (inactive); in the test with SNB-75, > 100 µM (inactive); in the test with KM12, > 100 µM (inactive); in the test with OVCAR-4, 59.2 µM (inactive); with OVCAR-5 it was > 100 µM (inactive); in the test on MCF7, > 100 µM (inactive). The GI50 with PC-3 was > 100 µM (inactive); in the test with Hs-578T it was 97.1 µM (inactive); with UACC-62 it was > 100 µM (inactive); in the test with IGROV-1, > 100 µM (inactive); with SF-295, > 100 µM (inactive); in the test with HOP-92 it was 80.9 µM (inactive). The GI50 in the test on SK-MEL-28, in the test with OVCAR-8, in the test on CCRF-CEM and in the test with MDA-MB-231 was > 100 µM (inactive) throughout.
Regarding `CC(=O)OC1CCN(C(=O)c2ccccc2)CC1CC1(c2cc3ccccc3[nH]2)OCCO1` (stereo not drawn), the GI50 was > 100 µM (inactive) with SW-620; 49.4 µM (inactive) in the test on SNB-75; 67.5 µM (inactive) in the test with KM12; 77.3 µM (inactive) with OVCAR-4; > 100 µM (inactive) with OVCAR-5; 26.7 µM (inactive) with A498. The GI50 was > 100 µM (inactive) in the test on MCF7; 34.9 µM (inactive) in the test with PC-3; 36.6 µM (inactive) in the test with UACC-62; 61.2 µM (inactive) with IGROV-1; 68.5 µM (inactive) with SF-295; 48.9 µM (inactive) with HOP-92. The GI50 is > 100 µM (inactive) with SK-MEL-28, 73.1 µM (inactive) in the test with OVCAR-8, 48.3 µM (inactive) in the test on CCRF-CEM and > 100 µM (inactive) with MDA-MB-231.
As for `COc1c(CC=C(C)C)c(O)c(C(CC(C)C)c2c(O)c3c(c(C(C)=O)c2O)OC(C(C)(C)O)C3)c(O)c1C(C)=O` (stereo not drawn), the GI50 is 4.62 µM (inactive) with SW-620; 4.92 µM (inactive) in the test with SNB-75; 3.7 µM (inactive) with KM12; 4.57 µM (inactive) with OVCAR-4; 6.93 µM (inactive) with OVCAR-5; 3.84 µM (inactive) with A498. For the same molecule, the GI50 is 3.61 µM (inactive) in the test on MCF7; 3.15 µM (inactive) with PC-3; 3.94 µM (inactive) with Hs-578T; 4.94 µM (inactive) in the test on UACC-62; 5.07 µM (inactive) in the test with IGROV-1; 4.55 µM (inactive) with SF-295. Besides, the GI50 in the test on HOP-92 was 2.71 µM (inactive); in the test on SK-MEL-28, 6.12 µM (inactive); with OVCAR-8, 4.4 µM (inactive); in the test with BT-549, 3 µM (inactive); in the test with CCRF-CEM it was 2.58 µM (inactive); in the test with SF-539, 4.24 µM (inactive).
Regarding `CCOP(=O)(Cc1nc(C#N)c(N)o1)OCC`, the GI50 in the test on SW-620, in the test with KM12, in the test on OVCAR-4, in the test with OVCAR-5, in the test with A498 and in the test with MCF7 was > 100 µM (inactive) each time. Further, the GI50 with PC-3, in the test with Hs-578T, in the test with UACC-62, with IGROV-1, in the test with SF-295 and with HOP-92 was > 100 µM (inactive) throughout. Besides, the GI50 in the test on SK-MEL-28, in the test with CCRF-CEM and in the test on MDA-MB-231 was > 100 µM (inactive) each time.
In the case of `Cn1c2c(c3ccccc31)CCN1C(=O)C3SC21C1C(=O)N(c2ccccc2)C(=O)C31` (stereo not drawn), the GI50 with SW-620 is 36.8 µM (inactive); in the test on KM12, > 100 µM (inactive); with OVCAR-4, > 100 µM (inactive); with OVCAR-5 it was > 100 µM (inactive); in the test with A498 it was 26.4 µM (inactive); with MCF7, 30.4 µM (inactive). Moreover, the GI50 is > 100 µM (inactive) in the test on Hs-578T; 21.5 µM (inactive) in the test with UACC-62; > 100 µM (inactive) in the test on IGROV-1; > 100 µM (inactive) with SF-295; > 100 µM (inactive) in the test on HOP-92; 25.4 µM (inactive) in the test with SK-MEL-28. For the same molecule, the GI50 in the test with OVCAR-8 is > 100 µM (inactive); in the test with BT-549, > 100 µM (inactive); with SF-539 it was 39.7 µM (inactive); in the test with MDA-MB-231, > 100 µM (inactive).
As for `CC(=O)O[C@H]1CC[C@H]2[C@@H]3CCC4=CC(=O)C=C[C@]4(O)[C@H]3CC[C@]12C`, the GI50 in the test on SW-620 is 25.5 µM (inactive); with SNB-75, 14.7 µM (inactive); with KM12, 14.9 µM (inactive); in the test on OVCAR-4, > 48.9 µM (inactive); with OVCAR-5, > 100 µM (inactive); in the test with A498 it was 42.8 µM (inactive). In addition, the GI50 in the test with MCF7 was 26.7 µM (inactive); in the test on PC-3, 30.1 µM (inactive); in the test on UACC-62 it was 42.3 µM (inactive); in the test with IGROV-1, 55.1 µM (inactive); in the test with SF-295, 16.6 µM (inactive); with HOP-92, 23.9 µM (inactive). Besides, the GI50 in the test with SK-MEL-28 was 28.2 µM (inactive); in the test on OVCAR-8, 19.1 µM (inactive); with BT-549 it was 43 µM (inactive); in the test on CCRF-CEM, 13.5 µM (inactive); with SF-539, 31.3 µM (inactive); in the test with MDA-MB-231, > 82.8 µM (inactive).
In the case of `CCN1CCN(c2nc3ccc([N+](=O)[O-])cc3nc2C(=O)c2ccccc2)CC1`, the GI50 in the test on SW-620 was 21 µM (inactive); in the test on KM12, 16.8 µM (inactive); with OVCAR-5, 20.1 µM (inactive); in the test with A498 it was 30.4 µM (inactive); in the test on MCF7, 18.3 µM (inactive); in the test with PC-3, 17.3 µM (inactive). Also, the GI50 with UACC-62 is 16.9 µM (inactive); in the test with IGROV-1 it was 5.78 µM (inactive); with SF-295, 16.7 µM (inactive); in the test on HOP-92 it was 17.8 µM (inactive); with OVCAR-8, 16.8 µM (inactive); in the test on BT-549, 5.64 µM (inactive). For the same molecule, the GI50 with CCRF-CEM is 2.12 µM (inactive); with SF-539 it was 16.1 µM (inactive); in the test on MDA-MB-231, 14.6 µM (inactive).
As for `Cc1nc2c(cc1C(=O)N/N=C/c1ccc([N+](=O)[O-])cc1)c(=O)n(C)c(=O)n2C`, the GI50 with SW-620, in the test on SNB-75, in the test with KM12, in the test with OVCAR-4, with OVCAR-5 and in the test on MCF7 was > 100 µM (inactive) each time. Moreover, the GI50 in the test with PC-3 is > 100 µM (inactive); with Hs-578T it was 31.1 µM (inactive); with UACC-62 it was > 100 µM (inactive); in the test with IGROV-1, 42.4 µM (inactive); with SF-295 it was 54.1 µM (inactive); with SK-MEL-28, > 100 µM (inactive). The GI50 with OVCAR-8 is 32.4 µM (inactive); in the test on BT-549 it was 30.5 µM (inactive); with CCRF-CEM it was > 100 µM (inactive); in the test on MDA-MB-231, 22.1 µM (inactive).
Turning to `Cc1ccc2c(O)cc(-c3cccc(Cl)c3)nc2n1`, the GI50 in the test on SW-620 was < 0.01 µM (active); with KM12 it was < 0.0196 µM (active); in the test on OVCAR-4, > 62.1 µM (inactive); in the test on A498 it was 0.0333 µM (active); in the test on MCF7, < 0.0217 µM (active); in the test on Hs-578T, 0.028 µM (active). Moreover, the GI50 in the test with UACC-62 is < 0.01 µM (active); in the test with IGROV-1, 0.0155 µM (active); in the test on SF-295 it was < 0.0151 µM (active); in the test with HOP-92, 1.25 µM (inactive); with SK-MEL-28, 0.0916 µM (active); in the test on OVCAR-8 it was 0.115 µM (active). Moreover, the GI50 in the test with BT-549 was 0.278 µM (active); in the test on CCRF-CEM it was < 0.0238 µM (active); in the test with SF-539, < 0.01 µM (active); with MDA-MB-231 it was 0.0537 µM (active).
